Laboratory results taken from patent publication US5084443A, “Promoting expression of acetylcholine receptors with LHRH antagonist” (Biomeasure, Inc., priority 1989, dated 1992).
Like-named read-outs stand apart in the source and are kept apart here.

Assays:
denervated EDL muscle = assay: Denervation atrophy of EDL muscle after peroneal nerve crush (wet muscle weight, protein content); assay type: in vivo, Sprague Dawley rats; settings: for Muscle wt / Proteins: peptide crushed; for Muscle wt: wet EDL weight; for Proteins: ug protein content per mg muscle weight
Procedure: LHRH analogs can be tested for effectiveness in treating injured nerve tissue or preserving muscle mass according to the testing procedures described below for the LHRH analog BIM-21009. BIM-21009 is an antagonist of LHRH activity having the amino acid formula N-Acetyl-D-Naphthylalanine-D-para-Cl-Phe-D-Phe-Ser-Tyr-D-Arg-Phe-Arg-Pro-D-Ala-NH2. BIM-21009 was administered to animals both prior to and after denervation. The animals were prepared for treatment as follows.
Adult male and female Sprague Dawley rats (Hilltop) weighing approximately 250-275 g were housed in groups of three of the same sex and provided with Purina rat chow and water ad libitum. They were maintained in a 12L:12D photoperiod with lights off at 19:00 hr. Animals were divided into 2 groups having six subdivisions each of 5-7 animals: (1) four days post-lesion: "sham crushed" (i.e., sham nerve crush) males and females, "intact crushed" (i.e., nerve crush control group) males and females, and "LHRH antagonist treated and crushed" (i.e., peptide treatment after nerve crush, also referred to as "peptide crushed") males and females; and (2) twelve days post-lesion: sham crushed males and females, intact crushed males and females, and LHRH treated and crushed males and females.
All animals were anesthetized with an 8% solution of chloral hydrate (0.4 g/kg). An incision was made on the left leg and the peroneal nerve was exposed at its site of entrance into the peroneal longus muscle. The nerve was crushed with a watchmaker forcep having a uniformly filed tip of 0.2 mm, by applying pressure on the nerve for 10 seconds, rotating the forceps, and applying pressure again on the opposite side for another 10 seconds. After crush, this area of approximately 1 mm becomes translucid. This modified crush method gives well-defined axonal interruption without disrupting the connective tissue sheaths or blood vessels in the region.
All chemically treated animals received 1 s.c. injection of the LHRH antagonist BIM-21009 at a dosage of 5 mg/kg 24 hrs prior to denervation. Animals in the 12 day groups received an additional injection of 5 mg/kg 6 days after the first injection.
Dissections were performed between 13:00 and 15:00 hrs. The peroneal nerve was allowed to regenerate for 4 or 12 days, after which the animals were anesthetized with chloral hydrate (0.4 g/kg), the extensor digitorum longus ("EDL") was dissected, frozen on powdered dry ice and stored at -70° C. until the day of the assay.
The Lowry Method was used for protein determinations. Statistical analysis was performed using 2×2 ANOVA, 1 way ANOVA. Tukey's HSD test was used for post-hoc comparisons.

acetylcholine receptors = assay type: in vivo, Sprague Dawley rats; settings: for AChR (cpm) / AChR: peptide crushed; for AChR: fmoles per ug protein
[1] = females, 4 days post-lesion, 5 mg/kg s.c.
[2] = females, 12 days post-lesion, 2 x 5 mg/kg s.c.
[3] = males, 4 days post-lesion, 5 mg/kg s.c.
[4] = males, 12 days post-lesion, 2 x 5 mg/kg s.c.

Substance: N-Acetyl-D-Naphthylalanine-D-para-Cl-Phe-D-Phe-Ser-Tyr-D-Arg-Phe-Arg-Pro-D-Ala-NH2 [BIM-21009]
- atrophy of the denervated EDL muscle vs crushed control group (denervated EDL muscle; both at 4 days and at 12 days post-lesion, less striking in females than in males): significantly decreased
- recovery from the crush-induced muscle atrophy: protein content (denervated EDL muscle; females as well as males (FIG. 2)): increase in protein content rather than fat accumulation or edema
- Muscle wt (denervated EDL muscle; females, 4 days post-lesion, 5 mg/kg s.c. 24 hrs prior to denervation): 83.8 mg
- Proteins (denervated EDL muscle; [1]): 4.58 µg
- Muscle wt (denervated EDL muscle; females, 12 days post-lesion, 5 mg/kg s.c. 24 hrs prior to denervation plus 5 mg/kg 6 days later): 84.0 mg
- Proteins (denervated EDL muscle; [2]): 4.23 µg
- protection of EDL muscle from denervation atrophy (denervated EDL muscle; males): protects the EDL muscle in the males from denervation atrophy
- Muscle wt (denervated EDL muscle; males, 4 days post-lesion, 5 mg/kg s.c. 24 hrs prior to denervation): 81.2 mg
- Proteins (denervated EDL muscle; [3]): 4.05 µg
- Muscle wt (denervated EDL muscle; males, 12 days post-lesion, 5 mg/kg s.c. 24 hrs prior to denervation plus 5 mg/kg 6 days later): 83.1 mg
- Proteins (denervated EDL muscle; [4]): 4.34 µg
- ratio of cpm/mg muscle vs intact crushed groups (acetylcholine receptors; both males and females (FIG. 5)): higher ratio of cpm/mg muscle
- number of ACh receptors (acetylcholine receptors; both sexes, at 4 days after nerve crush, more marked in males): dramatic increase
- time course of effect on ACh receptor number (acetylcholine receptors; day 4 vs day 12 post-lesion): maximal effect at day 4 post-lesion and a minimal or null effect by day 12
- AChR (cpm) (acetylcholine receptors; [1]): 23.39 cpm
- AChR (acetylcholine receptors; [1]): 90.07 fmol
- AChR (cpm) (acetylcholine receptors; [2]): 15.34 cpm
- AChR (acetylcholine receptors; [2]): 65.74 fmol
- ratio of AChR number/muscle (fM AChR/mg muscle or fM/ug protein) vs crushed group with intact gonads (acetylcholine receptors; male and female rats (FIGS. 3 and 4)): significantly higher ratio
- AChR number/muscle weight ratio vs crushed untreated controls (acetylcholine receptors; males with intact gonads (FIG. 4)): higher than in the crushed untreated controls
- AChR (cpm) (acetylcholine receptors; [3]): 38.37 cpm
- AChR (acetylcholine receptors; [3]): 166.96 fmol
- AChR (cpm) (acetylcholine receptors; [4]): 19.01 cpm
- AChR (acetylcholine receptors; [4]): 82.09 fmol
